According to US20210403443A1, “SUBSTITUTED 1,2,4-OXADIAZOLE, ITS APPLICATION AND A PHARMACEUTICAL PREPARATION COMPRISING IT” (SVENOX PHARMACEUTICALS LLC, priority 2018, published 2021):
Converted amounts (≈) assume the structure as drawn.

Experiments:
Test in all cases: microbe, parasite or virus in culture
Assay type in all cases: cell-based
Details in all cases: for MIC: Mycobacterium tuberculosis, 336 h, read-out: Minimum inhibiting concentration of substances with general formula I
[1] = system: M. tuberculosis MDR strain Praha 4
[2] = system: M. tuberculosis MDR strain 8666/2010
[3] = system: M. tuberculosis MDR strain Praha 1
[4] = system: M. tuberculosis MDR strain Praha 131
[5] = system: M. tuberculosis MDR strain 9449/2007
[6] = system: M. tuberculosis MDR strain 234/2005
[7] = system: M. tuberculosis MDR strain 7357/1998

NCC[C@H](O)C(=O)N[C@@H]1C[C@H](N)[C@@H](O[C@H]2O[C@H](CN)[C@@H](O)[C@H](O)[C@H]2O)[C@H](O)[C@H]1O[C@H]1O[C@H](CO)[C@@H](O)[C@H](N)[C@H]1O [Amikacin] was tested, and the “Minimum inhibiting concentration of commonly used antibiotics and antituberculosis medicaments” value (“Minimum inhibiting concentration” for short) [1] was 0.85 C μmol · l^−1, the “strain resistant or sensitive to the drug” value [1] was 0.85 C and the “Minimum inhibiting concentration” value [2] was 1.7 C μmol · l^−1. The “strain resistant or sensitive to the drug” value [2] was 1.7 C, the “Minimum inhibiting concentration” value [3] was 0.43 C μmol · l^−1 and the “strain resistant or sensitive to the drug” value [3] was 0.43 C. For the same compound, the “Minimum inhibiting concentration” value [4] was greater than 27.2 R μmol · l^−1, the “strain resistant or sensitive to the drug” value [4] was greater than 27.2 R and the “Minimum inhibiting concentration” value [5] was 0.43 C μmol · l^−1. For the same compound, the “strain resistant or sensitive to the drug” value [5] was 0.43 C, the “Minimum inhibiting concentration” value [6] was 0.43 C μmol · l^−1 and the “strain resistant or sensitive to the drug” value [6] was 0.43 C. The “Minimum inhibiting concentration” value [7] was 0.85 C μmol · l^−1 and the “strain resistant or sensitive to the drug” value [7] was 0.85 C.

In the case of CC(C)/N=c1\cc2n(-c3ccc(Cl)cc3)c3ccccc3nc-2cc1Nc1ccc(Cl)cc1 [Clofazimin], the “Minimum inhibiting concentration” value [1] is reported as 0.53 R μmol · l^−1, the “strain resistant or sensitive to the drug” value [1] is reported as 0.53 R and the “Minimum inhibiting concentration” value [2] is reported as 2.11 R μmol · l^−1. The “strain resistant or sensitive to the drug” value [2] was 2.11 R, the “Minimum inhibiting concentration” value [3] was 0.53 R μmol · l^−1 and the “strain resistant or sensitive to the drug” value [3] was 0.53 R. The “Minimum inhibiting concentration” value [4] was 0.26 C μmol · l^−1, the “strain resistant or sensitive to the drug” value [4] was 0.26 C and the “Minimum inhibiting concentration” value [5] was 0.13 C μmol · l^−1. The “strain resistant or sensitive to the drug” value [5] was 0.13 C, the “Minimum inhibiting concentration” value [6] was 0.06 C μmol · l^−1 and the “strain resistant or sensitive to the drug” value [6] was 0.06 C. The “Minimum inhibiting concentration” value [7] was 0.13 C μmol · l^−1 and the “strain resistant or sensitive to the drug” value [7] was 0.13 C.

For COc1ccc(-c2noc(SCc3cc([N+](=O)[O-])cc([N+](=O)[O-])c3)n2)cc1 [Compound 3], the MIC [1] was 0.5 µM (≈ 0.194 µg/mL), the MIC [2] was 0.5 µM (≈ 0.194 µg/mL) and the MIC [3] was 1 µM (≈ 0.388 µg/mL). For the same compound, the MIC [4] was 0.5 µM (≈ 0.194 µg/mL), the MIC [5] was 0.5 µM (≈ 0.194 µg/mL) and the MIC [6] was 0.5 µM (≈ 0.194 µg/mL). The MIC [7] was 0.5 µM (≈ 0.194 µg/mL).

For O=[N+]([O-])c1cc(CSc2nc(-c3ccc(Cl)cc3)no2)cc([N+](=O)[O-])c1 [Compound 4], the MIC [1] was 0.5 µM (≈ 0.196 µg/mL), the MIC [2] was 0.5 µM (≈ 0.196 µg/mL) and the MIC [3] was 2 µM (≈ 0.786 µg/mL). The MIC [4] was 1 µM (≈ 0.393 µg/mL), the MIC [5] was 1 µM (≈ 0.393 µg/mL) and the MIC [6] was 0.5 µM (≈ 0.196 µg/mL). It also gave an MIC [7] of 1 µM (≈ 0.393 µg/mL).

In the case of O=[N+]([O-])c1cc(CSc2nc(-c3cccc(Cl)c3)no2)cc([N+](=O)[O-])c1 [Compound 5], the MIC [1] is reported as 0.5 µM (≈ 0.196 µg/mL), the MIC [2] is reported as 0.5 µM (≈ 0.196 µg/mL) and the MIC [3] is reported as 1 µM (≈ 0.393 µg/mL). For the same compound, the MIC [4] was 1 µM (≈ 0.393 µg/mL), the MIC [5] was 1 µM (≈ 0.393 µg/mL) and the MIC [6] was 0.5 µM (≈ 0.196 µg/mL). The MIC [7] was 1 µM (≈ 0.393 µg/mL).

Compound O=[N+]([O-])c1cc(CSc2nc(-c3ccc(F)cc3)no2)cc([N+](=O)[O-])c1 [Compound 8] has an MIC [1] of 0.5 µM (≈ 0.188 µg/mL), an MIC [2] of 0.5 µM (≈ 0.188 µg/mL) and an MIC [3] of 0.5 µM (≈ 0.188 µg/mL). It also gave an MIC [4] of 0.5 µM (≈ 0.188 µg/mL), an MIC [5] of 0.5 µM (≈ 0.188 µg/mL) and an MIC [6] of 0.5 µM (≈ 0.188 µg/mL). It also gave an MIC [7] of 0.5 µM (≈ 0.188 µg/mL).

With O=[N+]([O-])c1cc(CSc2nc(-c3ccc(Br)cc3)no2)cc([N+](=O)[O-])c1 [Compound 9] the MIC [1] was 0.5 µM (≈ 0.219 µg/mL), the MIC [2] was 0.5 µM (≈ 0.219 µg/mL) and the MIC [3] was 0.5 µM (≈ 0.219 µg/mL). The MIC [4] was 1 µM (≈ 0.437 µg/mL), the MIC [5] was 0.5 µM (≈ 0.219 µg/mL) and the MIC [6] was 0.5 µM (≈ 0.219 µg/mL). For the same compound, the MIC [7] was 1 µM (≈ 0.437 µg/mL).

With CC[C@@H](CO)NCCN[C@@H](CC)CO [Etambutol] the “Minimum inhibiting concentration” value [1] was 19.6 R μmol · l^−1, the “strain resistant or sensitive to the drug” value [1] was 19.6 R and the “Minimum inhibiting concentration” value [2] was 19.6 R μmol · l^−1. For the same compound, the “strain resistant or sensitive to the drug” value [2] was 19.6 R, the “Minimum inhibiting concentration” value [3] was 39.2 R μmol · l^−1 and the “strain resistant or sensitive to the drug” value [3] was 39.2 R. For the same compound, the “Minimum inhibiting concentration” value [4] was 39.2 R μmol · l^−1, the “strain resistant or sensitive to the drug” value [4] was 39.2 R and the “Minimum inhibiting concentration” value [5] was 9.8 C μmol · l^−1. The “strain resistant or sensitive to the drug” value [5] was 9.8 C, the “Minimum inhibiting concentration” value [6] was 19.6 R μmol · l^−1 and the “strain resistant or sensitive to the drug” value [6] was 19.6 R. For the same compound, the “Minimum inhibiting concentration” value [7] was 19.6 R μmol · l^−1 and the “strain resistant or sensitive to the drug” value [7] was 19.6 R.

In the case of NNC(=O)c1ccncc1 [Isoniazid], the “Minimum inhibiting concentration” value [1] is reported as 14.6 R μmol · l^−1, the “strain resistant or sensitive to the drug” value [1] is reported as 14.6 R and the “Minimum inhibiting concentration” value [2] is reported as 29.2 R μmol · l^−1. For the same compound, the “strain resistant or sensitive to the drug” value [2] was 29.2 R, the “Minimum inhibiting concentration” value [3] was 14.6 R μmol · l^−1 and the “strain resistant or sensitive to the drug” value [3] was 14.6 R. For the same compound, the “Minimum inhibiting concentration” value [4] was 14.6 R μmol · l^−1, the “strain resistant or sensitive to the drug” value [4] was 14.6 R and the “Minimum inhibiting concentration” value [5] was 58.3 R μmol · l^−1. The “strain resistant or sensitive to the drug” value [5] was 58.3 R, the “Minimum inhibiting concentration” value [6] was 14.6 R μmol · l^−1 and the “strain resistant or sensitive to the drug” value [6] was 14.6 R. For the same compound, the “Minimum inhibiting concentration” value [7] was 14.6 R μmol · l^−1 and the “strain resistant or sensitive to the drug” value [7] was 14.6 R.

In the case of CC1COc2c(N3CCN(C)CC3)c(F)cc3c(=O)c(C(=O)O)cn1c23 (stereo not drawn) [Ofloxacin], the “Minimum inhibiting concentration” value [1] is reported as greater than 22.2 R μmol · l^−1, the “strain resistant or sensitive to the drug” value [1] is reported as greater than 22.2 R and the “Minimum inhibiting concentration” value [2] is reported as 11.1 R μmol · l^−1. The “strain resistant or sensitive to the drug” value [2] was 11.1 R, the “Minimum inhibiting concentration” value [3] was 1.38 C μmol · l^−1 and the “strain resistant or sensitive to the drug” value [3] was 1.38 C. For the same compound, the “Minimum inhibiting concentration” value [4] was 22.2 R μmol · l^−1, the “strain resistant or sensitive to the drug” value [4] was 22.2 R and the “Minimum inhibiting concentration” value [5] was 2.75 C μmol · l^−1. For the same compound, the “strain resistant or sensitive to the drug” value [5] was 2.75 C, the “Minimum inhibiting concentration” value [6] was 0.69 C μmol · l^−1 and the “strain resistant or sensitive to the drug” value [6] was 0.69 C. The “Minimum inhibiting concentration” value [7] was 11.1 R μmol · l^−1 and the “strain resistant or sensitive to the drug” value [7] was 11.1 R.

CO[C@H]1/C=C/O[C@@]2(C)Oc3c(C)c(O)c4c(O)c(c(/C=N/N5CCN(C)CC5)c(O)c4c3C2=O)NC(=O)/C(C)=C\C=C\[C@H](C)[C@H](O)[C@@H](C)[C@@H](O)[C@@H](C)[C@H](OC(C)=O)[C@@H]1C [Rifampicin] was tested, and the “Minimum inhibiting concentration” value [1] was greater than 9.7 R μmol · l^−1, the “strain resistant or sensitive to the drug” value [1] was greater than 9.7 R and the “Minimum inhibiting concentration” value [2] was greater than 9.7 R μmol · l^−1. For the same compound, the “strain resistant or sensitive to the drug” value [2] was greater than 9.7 R, the “Minimum inhibiting concentration” value [3] was greater than 9.7 R μmol · l^−1 and the “strain resistant or sensitive to the drug” value [3] was greater than 9.7 R. The “Minimum inhibiting concentration” value [4] was greater than 9.7 R μmol · l^−1, the “strain resistant or sensitive to the drug” value [4] was greater than 9.7 R and the “Minimum inhibiting concentration” value [5] was greater than 9.7 R μmol · l^−1. For the same compound, the “strain resistant or sensitive to the drug” value [5] was greater than 9.7 R, the “Minimum inhibiting concentration” value [6] was greater than 9.7 R μmol · l^−1 and the “strain resistant or sensitive to the drug” value [6] was greater than 9.7 R. The “Minimum inhibiting concentration” value [7] was greater than 9.7 R μmol · l^−1 and the “strain resistant or sensitive to the drug” value [7] was greater than 9.7 R.

For [H]/N=C(/N)N[C@H]1[C@H](O)[C@@H](O)[C@H](O[C@@H]2O[C@@H](C)[C@](O)(C=O)[C@H]2O[C@@H]2O[C@@H](CO)[C@H](O)[C@@H](O)[C@@H]2NC)[C@@H](N/C(N)=N\[H])[C@@H]1O [Streptomycin], the “Minimum inhibiting concentration” value [1] was greater than 27.5 R μmol · l^−1, the “strain resistant or sensitive to the drug” value [1] was greater than 27.5 R and the “Minimum inhibiting concentration” value [2] was greater than 27.5 R μmol · l^−1. For the same compound, the “strain resistant or sensitive to the drug” value [2] was greater than 27.5 R, the “Minimum inhibiting concentration” value [3] was 13.7 R μmol · l^−1 and the “strain resistant or sensitive to the drug” value [3] was 13.7 R. The “Minimum inhibiting concentration” value [4] was greater than 27.5 R μmol · l^−1, the “strain resistant or sensitive to the drug” value [4] was greater than 27.5 R and the “Minimum inhibiting concentration” value [5] was greater than 27.5 R μmol · l^−1. For the same compound, the “strain resistant or sensitive to the drug” value [5] was greater than 27.5 R, the “Minimum inhibiting concentration” value [6] was 27.5 R μmol · l^−1 and the “strain resistant or sensitive to the drug” value [6] was 27.5 R. For the same compound, the “Minimum inhibiting concentration” value [7] was greater than 27.5 R μmol · l^−1 and the “strain resistant or sensitive to the drug” value [7] was greater than 27.5 R.

In the case of Gentamicin, the “Minimum inhibiting concentration” value [1] is reported as 0.52 C μmol · l^−1, the “strain resistant or sensitive to the drug” value [1] is reported as 0.52 C and the “Minimum inhibiting concentration” value [2] is reported as 2.09 C μmol · l^−1. For the same compound, the “strain resistant or sensitive to the drug” value [2] was 2.09 C, the “Minimum inhibiting concentration” value [3] was 1.05 C μmol · l^−1 and the “strain resistant or sensitive to the drug” value [3] was 1.05 C. For the same compound, the “Minimum inhibiting concentration” value [4] was greater than 8.37 R μmol · l^−1, the “strain resistant or sensitive to the drug” value [4] was greater than 8.37 R and the “Minimum inhibiting concentration” value [5] was 1.05 C μmol · l^−1. The “strain resistant or sensitive to the drug” value [5] was 1.05 C, the “Minimum inhibiting concentration” value [6] was 0.26 C μmol · l^−1 and the “strain resistant or sensitive to the drug” value [6] was 0.26 C. The “Minimum inhibiting concentration” value [7] was 1.05 C μmol · l^−1 and the “strain resistant or sensitive to the drug” value [7] was 1.05 C.
